Source: PubChem BioAssay AID192 (DTP/NCI, 2004)
“And” between values parts separate entries of the source, which are not always exact repeats. Equal values may be shown once. Toxic doses and inconclusive results are not listed. Rule for the calls: active = survival T/C of 150% or more; inactive = T/C below 125% in these data.

Test system: BDF1 mice, B16 melanoma ip, median survival T/C
Test: NCI In Vivo Anticancer Drug Screen. Data for tumor model B16 Melanoma (intraperitoneal) in B6D2F1 (BDF1) mice
Conditions: endpoint: median survival time, schedule: Q01DX009 (ip), higher = longer survival
In short: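 Read-out: survival or tumor size, given as treated/control ratio. Controls received vehicle only; animals bore transplantable tumors.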

Measured: T/C

COc1cc2c(cc1OC)/C(=N/N)CCC2
inactive: dose: 6.25 mg/kg/injection, vehicle: water 99 % of control | dose: 12.5 mg/kg/injection, vehicle: water 92 % of control | dose: 25.0 mg/kg/injection, vehicle: water 93 % of control | dose: 50.0 mg/kg/injection, vehicle: water 97 % of control

CCOc1ccccc1NC(=O)c1ccccc1Cl
inactive: dose: 100.0 mg/kg/injection, vehicle: Klucel (hydroxypropylcellulose) (HPC) 106 % of control | dose: 200.0 mg/kg/injection, vehicle: Klucel (hydroxypropylcellulose) (HPC) 106 % of control | dose: 400.0 mg/kg/injection, vehicle: Klucel (hydroxypropylcellulose) (HPC) 93 % of control

CO[C@H](C(=O)[C@@H](O)[C@@H](C)O)[C@@H]1Cc2cc3cc(OC4CC(OC5CC(O)C(O)C(C)O5)C(O)C(C)O4)c(C)c(O)c3c(O)c2C(=O)[C@H]1OC1CC(OC2CC(OC3CC(C)(O)C(O)C(C)O3)C(O)C(C)O2)C(O)C(C)O1 (stereo partly specified)
inactive: dose: 0.02 mg/kg/injection, vehicle: water 103 % of control | dose: 0.05 mg/kg/injection, vehicle: water 106 % of control | dose: 0.06 mg/kg/injection, vehicle: saline 101 % of control | dose: 0.1 mg/kg/injection, vehicle: water 100 % of control and 103 % of control | dose: 0.12 mg/kg/injection, vehicle: saline 101 % of control | dose: 0.12 mg/kg/injection, vehicle: water 96 % of control | dose: 0.13 mg/kg/injection, vehicle: clinical formulation 100 % of control | dose: 0.13 mg/kg/injection, vehicle: saline 100 % of control and 109 % of control | dose: 0.13 mg/kg/injection, vehicle: water 94 % of control | dose: 0.2 mg/kg/injection, vehicle: water 111 % of control | dose: 0.25 mg/kg/injection, vehicle: clinical formulation 102 % of control | dose: 0.25 mg/kg/injection, vehicle: saline 100 % of control and 104 % of control and 111 % of control | dose: 0.25 mg/kg/injection, vehicle: water 98 % of control | dose: 0.4 mg/kg/injection, vehicle: water 111 % of control | dose: 0.5 mg/kg/injection, vehicle: clinical formulation 100 % of control | dose: 0.5 mg/kg/injection, vehicle: saline 97 % of control and 105 % of control and 121 % of control | dose: 0.5 mg/kg/injection, vehicle: water 98 % of control | dose: 0.6 mg/kg/injection, vehicle: water 102 % of control | dose: 0.75 mg/kg/injection, vehicle: saline 104 % of control | dose: 1.0 mg/kg/injection, vehicle: clinical formulation 105 % of control | dose: 1.0 mg/kg/injection, vehicle: saline 97 % of control and 106 % of control and 109 % of control | dose: 62.0 micrograms/kg/injection, vehicle: saline 98 % of control | dose: 125.0 micrograms/kg/injection, vehicle: saline 105 % of control | dose: 125.0 micrograms/kg/injection, vehicle: water 94 % of control | dose: 250.0 micrograms/kg/injection, vehicle: saline 119 % of control | dose: 500.0 micrograms/kg/injection, vehicle: saline 111 % of control | dose: 500.0 micrograms/kg/injection, vehicle: water 110 % of control | dose: 1000.0 micrograms/kg/injection, vehicle: saline 115 % of control | dose: 1000.0 micrograms/kg/injection, vehicle: water 109 % of control

COC(=O)[C@H]1[C@H]2C[C@@H]3c4[nH]c5cc(OC)ccc5c4CCN3C[C@H]2C[C@@H](OC(=O)/C=C/c2cc(OC)c(OC)c(OC)c2)[C@@H]1OC
inactive: dose: 0.09 mg/kg/injection, vehicle: Klucel (hydroxypropylcellulose) (HPC) 90 % of control | dose: 0.19 mg/kg/injection, vehicle: Klucel (hydroxypropylcellulose) (HPC) 94 % of control | dose: 0.39 mg/kg/injection, vehicle: Klucel (hydroxypropylcellulose) (HPC) 94 % of control and 100 % of control | dose: 0.78 mg/kg/injection, vehicle: Klucel (hydroxypropylcellulose) (HPC) 86 % of control and 90 % of control | dose: 1.56 mg/kg/injection, vehicle: Klucel (hydroxypropylcellulose) (HPC) 87 % of control and 93 % of control
